Source: ChEMBL document CHEMBL4414648, “Novel Benzohydroxamate-Based Potent and Selective Histone Deacetylase 6 (HDAC6) Inhibitors Bearing a Pentaheterocyclic Scaffold: Design, Synthesis, and Biological Evaluation” (J Med Chem, 2019)

What was measured:
PBMC = experiment: Cytotoxicity against human PBMC cells after 72 hrs by CellTiter 96 aqueous one solution assay; assay type: cell-based
[1] = Toxicity in C57BL/6 mouse assessed as effect on WBC level at 50 mg/kg, ip administered for 5 days/week for two cycles and measured 60 mins post last dose by beckman coulter counting method relative to control; assay type: organism-based; settings: in vivo, 1 h
[2] = Toxicity in C57BL/6 mouse assessed as effect on body temperature up to 50 mg/kg, ip administered for 5 days/week for two cycles and measured daily starting from day 1; assay type: organism-based; settings: in vivo, 120 h
[3] = Toxicity in C57BL/6 mouse assessed as induction of kyphosis up to 50 mg/kg, ip administered for 5 days/week for two cycles and measured daily starting from day 1; assay type: organism-based; settings: in vivo, 120 h
[4] = Toxicity in C57BL/6 mouse assessed as effect on spasms up to 50 mg/kg, ip administered for 5 days/week for two cycles and measured daily starting from day 1; assay type: organism-based; settings: in vivo, 120 h
[5] = Toxicity in C57BL/6 mouse assessed as effect on platelet level at 50 mg/kg, ip administered for 5 days/week for two cycles and measured 60 mins post last dose by cell counter method relative to control; assay type: organism-based; settings: in vivo, 1 h
[6] = Inhibition of C57BL/6 mouse effector T cells proliferation at 500 nM after 72 hrs in absence of regulatory T cells by CFSE dye based flow cytometric assay relative to control
[7] = Drug level in C57BL/6 mouse plasma at 30 mg/kg, ip measured after 24 hrs; assay type: ADME, organism-based; settings: in vivo, BLD = below limit of detection
[8] = Toxicity in C57BL/6 mouse assessed as effect on WBC level at 30 mg/kg, ip administered for 5 days/week for two cycles and measured 60 mins post last dose by beckman coulter counting method relative to control; assay type: organism-based; settings: in vivo, 1 h
[9] = Selectivity ratio of IC50 for human HDAC4 expressed in baculovirus infected sf9 insect cells to IC50 for human N-terminal GST-tagged HDAC6 expressed in baculovirus infected sf9 insect cells
[10] = Toxicity in C57BL/6 mouse assessed as effect on stool up to 50 mg/kg, ip administered for 5 days/week for two cycles and measured daily starting from day 1; assay type: organism-based; settings: in vivo, 120 h
[11] = target: T1, Protein deacetylase HDAC6 (Mus musculus) (UniProt Q9Z2V5); experiment: Inhibition of HDAC6 in C57BL/6 mouse regulatory T cells assessed as increase in Treg-mediated suppression of anti-CD3 induced CD4+ cell division at 500 nM after 72 hrs in presence mitomycin-treated APC by CFSE dye based flow cytometric assay relative to control
T1 sequence (whole entry): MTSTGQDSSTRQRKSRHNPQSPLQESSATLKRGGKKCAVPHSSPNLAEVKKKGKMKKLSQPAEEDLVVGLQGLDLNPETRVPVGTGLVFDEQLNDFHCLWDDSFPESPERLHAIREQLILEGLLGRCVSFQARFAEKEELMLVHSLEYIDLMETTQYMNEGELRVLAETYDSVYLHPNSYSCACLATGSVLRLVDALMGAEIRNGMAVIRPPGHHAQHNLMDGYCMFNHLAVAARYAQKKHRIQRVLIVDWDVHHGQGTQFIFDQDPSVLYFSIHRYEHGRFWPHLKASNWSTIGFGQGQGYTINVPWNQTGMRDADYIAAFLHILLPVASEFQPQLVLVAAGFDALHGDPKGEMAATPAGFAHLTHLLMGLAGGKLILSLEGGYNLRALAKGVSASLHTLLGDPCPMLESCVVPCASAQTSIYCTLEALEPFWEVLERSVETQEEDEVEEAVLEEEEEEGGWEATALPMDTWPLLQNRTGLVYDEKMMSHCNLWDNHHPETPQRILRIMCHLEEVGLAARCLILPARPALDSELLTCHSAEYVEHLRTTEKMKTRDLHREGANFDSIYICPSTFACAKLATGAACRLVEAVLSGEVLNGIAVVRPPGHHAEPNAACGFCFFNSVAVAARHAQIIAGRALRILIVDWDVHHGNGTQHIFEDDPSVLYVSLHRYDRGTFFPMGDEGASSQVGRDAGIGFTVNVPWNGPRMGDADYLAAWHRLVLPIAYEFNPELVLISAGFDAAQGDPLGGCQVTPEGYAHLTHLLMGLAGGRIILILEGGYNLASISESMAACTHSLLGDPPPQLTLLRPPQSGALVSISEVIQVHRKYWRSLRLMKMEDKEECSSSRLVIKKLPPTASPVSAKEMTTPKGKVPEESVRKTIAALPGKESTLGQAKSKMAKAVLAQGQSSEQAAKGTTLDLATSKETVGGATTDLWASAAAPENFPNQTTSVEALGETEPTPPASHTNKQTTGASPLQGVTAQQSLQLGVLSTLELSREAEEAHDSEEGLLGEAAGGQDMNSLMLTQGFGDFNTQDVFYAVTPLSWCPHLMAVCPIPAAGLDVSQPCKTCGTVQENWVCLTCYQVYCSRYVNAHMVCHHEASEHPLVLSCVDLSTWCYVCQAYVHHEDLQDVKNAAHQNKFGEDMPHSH

697 = experiment: Cytotoxicity against human 697 cells after 48 hrs by CellTiter 96 aqueous one solution assay; assay type: cell-based; settings: Homo sapiens, 697, 48 h
[12] = Toxicity in C57BL/6 mouse assessed as effect on body weight at 30 mg/kg, ip administered for 5 days/week for two cycles and measured every other day relative to control; assay type: organism-based; settings: in vivo, 120 h
[13] = Toxicity in C57BL/6 mouse assessed as effect on grooming up to 50 mg/kg, ip administered for 5 days/week for two cycles; assay type: organism-based; settings: in vivo, 120 h
Mus musculus = experiment: Ratio of in vivo inhibition of HDAC6 in C57BL/6 mouse assessed as fold increase in acetylated tubulin level in spleen cytosolic protein extract to in vivo inhibition of HDAC in C57BL/6 mouse assessed as fold increase in acetylated-histone H3 level in spleen nuclear protein extracts
[14] = Toxicity in C57BL/6 mouse assessed as induction of piloerection up to 50 mg/kg, ip administered for 5 days/week for two cycles and measured daily starting from day 1; assay type: organism-based; settings: in vivo, 120 h
[15] = Toxicity in C57BL/6 mouse assessed as effect on postural changes up to 50 mg/kg, ip administered for 5 days/week for two cycles and measured daily starting from day 1; assay type: organism-based; settings: in vivo, 120 h
[16] = Oral bioavailability in CD-1 mouse at 5.2 mg/kg measured within 6 hrs by LC-MS/MS analysis; assay type: ADME, organism-based; settings: in vivo
Cytochrome P450 3A4 = Cytochrome P450 3A4 (Homo sapiens, UniProt P08684)
Description: Inhibition of CYP3A4 in human liver microsomes using testosterone as substrate

[17] = Toxicity in C57BL/6 mouse assessed as effect on body weight at 50 mg/kg, ip administered for 5 days/week for two cycles and measured every other day relative to control; assay type: organism-based; settings: in vivo, 120 h
[18] = target: T1, Protein deacetylase HDAC6 (Mus musculus); experiment: Inhibition of HDAC6 in C57BL/6 mouse regulatory T cells assessed as increase in Treg-mediated suppression of anti-CD3 induced CD4+ cell division at 1 uM after 72 hrs in presence mitomycin-treated APC by CFSE dye based flow cytometric assay relative to control
[19] = Selectivity ratio of IC50 for N-terminal Flag-tagged human HDAC10 (2 to 631 residues) expressed in baculovirus infected sf9 insect cells to IC50 for human N-terminal GST-tagged HDAC6 expressed in baculovirus infected sf9 insect cells

Sequence of Cytochrome P450 3A4 (P08684 whole entry): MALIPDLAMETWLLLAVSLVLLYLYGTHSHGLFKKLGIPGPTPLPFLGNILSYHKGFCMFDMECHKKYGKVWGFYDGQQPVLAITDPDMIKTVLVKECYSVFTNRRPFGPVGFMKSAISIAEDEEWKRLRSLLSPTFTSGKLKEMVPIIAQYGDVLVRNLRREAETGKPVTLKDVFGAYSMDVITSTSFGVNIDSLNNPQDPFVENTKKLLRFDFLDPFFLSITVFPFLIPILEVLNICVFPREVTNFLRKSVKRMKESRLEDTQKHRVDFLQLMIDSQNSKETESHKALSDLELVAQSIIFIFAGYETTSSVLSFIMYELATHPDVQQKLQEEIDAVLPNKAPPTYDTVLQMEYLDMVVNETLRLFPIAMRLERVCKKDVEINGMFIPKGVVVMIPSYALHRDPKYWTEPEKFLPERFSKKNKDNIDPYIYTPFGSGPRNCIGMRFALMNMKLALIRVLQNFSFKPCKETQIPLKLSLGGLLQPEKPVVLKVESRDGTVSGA

SMILES: Cn1c(Sc2ccc(C(=O)NO)cc2)nnc1-c1cccs1
- IC50 (PBMC): > 1 µM
- Activity [1]: -30%
- Activity [2]: Non-Toxic
- Activity [3]: Non-Toxic
- Activity [4]: Non-Toxic
- Activity [5]: -8%
- inhibition at 72 h, 0.5 µM [6]: < 0.5%
- Drug uptake [7]: Bld
- Activity [8]: -34%
- Ratio IC50 [9]: 304
- Activity [10]: Non-Toxic
- fold change (FC) [11]: > 1.5
- IC50 697: > 1 µM
- Activity [12]: 3.9%
- Activity [13]: Non-Toxic
- Ratio (Mus musculus): 3.5
- Activity [14]: Non-Toxic
- Activity [15]: Non-Toxic
- bioavailability [16]: 26%
- IC50 (Cytochrome P450 3A4): 26.6 µM
- Activity [17]: 3.5%
- fold change (FC) [18]: 3.4
- Ratio IC50 [19]: 343
